Results taken from article PMC12446476 (Nature Communications, 2025).
Converted amounts (≈) assume the structure as drawn. Where two headings read alike, the source gives them in different places.

Tested on: non-gonococcal Neisseria
Assay: MIC determination for non-gonococcal Neisseria, agar dilution
Format: cell-based, Neisseria species
Description: The 2024 WHO N. gonorrhoeae reference strains were used for quality control. Only whole MIC doubling dilutions are reported. Clinical breakpoints or the epidemiological cutoff (ECOFF, to indicate azithromycin resistance) from EUCAST (v14.0, https://www.eucast.org/clinical_breakpoints) were used to classify isolates as antimicrobial susceptible or resistant. […] Two times the standard inoculum defined by CLSI was used to establish consistent growth in untreated control samples for some strains. In vitro time-kill assays were performed according to CLSI guidelines[65] using Columbia Broth (BD Difco) supplemented with 1% IsoVitaleX Enrichment (BD). Viable bacterial counts were generated by plating 10-fold serially diluted samples on GC agar plates containing 1% IsoVitaleX Enrichment (BD).

## Cc1c(CN(C)C(=O)/C=C/c2cnc3c(c2)N[C@H](C)[C@H](O)C(=O)N3)oc2ccccc12 [Debio 1453]
Neisseria perflava 25, Replicate 3, read-out: Minimum inhibitory concentration
  MIC: 1 µg/mL (≈ 2.38 µM)
Neisseria polysaccharea 2, Consensus, read-out: Minimum inhibitory concentration
  MIC: 0.064 µg/mL (≈ 0.152 µM)
Neisseria polysaccharea 2, Replicate 1, read-out: Minimum inhibitory concentration
  MIC: 0.064 µg/mL (≈ 0.152 µM)
Neisseria polysaccharea 2, Replicate 2, read-out: Minimum inhibitory concentration
  MIC: 0.064 µg/mL (≈ 0.152 µM)
Neisseria polysaccharea 2, Replicate 3, read-out: Minimum inhibitory concentration
  MIC: 0.064 µg/mL (≈ 0.152 µM)
Neisseria sicca 1, Consensus, read-out: Minimum inhibitory concentration
  MIC: 0.5 µg/mL (≈ 1.19 µM)
Neisseria sicca 1, Replicate 1, read-out: Minimum inhibitory concentration
  MIC: 0.25 µg/mL (≈ 0.595 µM)
Neisseria sicca 1, Replicate 2, read-out: Minimum inhibitory concentration
  MIC: 0.5 µg/mL (≈ 1.19 µM)
Neisseria sicca 1, Replicate 3, read-out: Minimum inhibitory concentration
  MIC: 0.5 µg/mL (≈ 1.19 µM)
Neisseria sicca 2, Consensus, read-out: Minimum inhibitory concentration
  MIC: 0.25 µg/mL (≈ 0.595 µM)
Neisseria sicca 2, Replicate 1, read-out: Minimum inhibitory concentration
  MIC: 0.25 µg/mL (≈ 0.595 µM)
Neisseria sicca 2, Replicate 2, read-out: Minimum inhibitory concentration
  MIC: 0.25 µg/mL (≈ 0.595 µM)
Neisseria sicca 2, Replicate 3, read-out: Minimum inhibitory concentration
  MIC: 0.5 µg/mL (≈ 1.19 µM)
Neisseria sicca 3, Consensus, read-out: Minimum inhibitory concentration
  MIC: 0.008 µg/mL (≈ 0.019 µM)
Neisseria sicca 3, Replicate 1, read-out: Minimum inhibitory concentration
  MIC: 0.008 µg/mL (≈ 0.019 µM)
Neisseria sicca 3, Replicate 2, read-out: Minimum inhibitory concentration
  MIC: 0.016 µg/mL (≈ 0.0381 µM)
Neisseria sicca 3, Replicate 3, read-out: Minimum inhibitory concentration
  MIC: 0.008 µg/mL (≈ 0.019 µM)
Neisseria sicca 4, Replicate 3, read-out: Minimum inhibitory concentration
  MIC: 0.5 µg/mL (≈ 1.19 µM)
Neisseria sicca 5, Consensus, read-out: Minimum inhibitory concentration
  MIC: 0.016 µg/mL (≈ 0.0381 µM)
Neisseria sicca 5, Replicate 1, read-out: Minimum inhibitory concentration
  MIC: 0.008 µg/mL (≈ 0.019 µM)
Neisseria sicca 5, Replicate 2, read-out: Minimum inhibitory concentration
  MIC: 0.016 µg/mL (≈ 0.0381 µM)
Neisseria sicca 5, Replicate 3, read-out: Minimum inhibitory concentration
  MIC: 0.016 µg/mL (≈ 0.0381 µM)
Neisseria sicca 6, Consensus, read-out: Minimum inhibitory concentration
  MIC: 1 µg/mL (≈ 2.38 µM)
Neisseria sicca 6, Replicate 1, read-out: Minimum inhibitory concentration
  MIC: 1 µg/mL (≈ 2.38 µM)
Neisseria sicca 6, Replicate 2, read-out: Minimum inhibitory concentration
  MIC: 1 µg/mL (≈ 2.38 µM)
Neisseria sicca 6, Replicate 3, read-out: Minimum inhibitory concentration
  MIC: 1 µg/mL (≈ 2.38 µM)
Neisseria sicca 7, Consensus, read-out: Minimum inhibitory concentration
  MIC: 0.008 µg/mL (≈ 0.019 µM)
Neisseria sicca 7, Replicate 1, read-out: Minimum inhibitory concentration
  MIC: 0.008 µg/mL (≈ 0.019 µM)
Neisseria sicca 7, Replicate 2, read-out: Minimum inhibitory concentration
  MIC: 0.008 µg/mL (≈ 0.019 µM)
Neisseria sicca 7, Replicate 3, read-out: Minimum inhibitory concentration
  MIC: 0.008 µg/mL (≈ 0.019 µM)
Neisseria sicca 8, Consensus, read-out: Minimum inhibitory concentration
  MIC: 1 µg/mL (≈ 2.38 µM)
Neisseria sicca 8, Replicate 1, read-out: Minimum inhibitory concentration
  MIC: 0.5 µg/mL (≈ 1.19 µM)
Neisseria sicca 8, Replicate 2, read-out: Minimum inhibitory concentration
  MIC: 1 µg/mL (≈ 2.38 µM)
Neisseria sicca 8, Replicate 3, read-out: Minimum inhibitory concentration
  MIC: 1 µg/mL (≈ 2.38 µM)
Neisseria sicca 9, Consensus, read-out: Minimum inhibitory concentration
  MIC: 0.25 µg/mL (≈ 0.595 µM)
Neisseria sicca 9, Replicate 1, read-out: Minimum inhibitory concentration
  MIC: 0.25 µg/mL (≈ 0.595 µM)
Neisseria sicca 9, Replicate 2, read-out: Minimum inhibitory concentration
  MIC: 0.25 µg/mL (≈ 0.595 µM)
Neisseria sicca 9, Replicate 3, read-out: Minimum inhibitory concentration
  MIC: 0.25 µg/mL (≈ 0.595 µM)
Neisseria subflava 1, Consensus, read-out: Minimum inhibitory concentration
  MIC: 2 µg/mL (≈ 4.76 µM)
Neisseria subflava 1, Replicate 1, read-out: Minimum inhibitory concentration
  MIC: 2 µg/mL (≈ 4.76 µM)
Neisseria subflava 1, Replicate 2, read-out: Minimum inhibitory concentration
  MIC: 2 µg/mL (≈ 4.76 µM)
Neisseria subflava 1, Replicate 3, read-out: Minimum inhibitory concentration
  MIC: 2 µg/mL (≈ 4.76 µM)
Neisseria subflava 2, Consensus, read-out: Minimum inhibitory concentration
  MIC: 0.25 µg/mL (≈ 0.595 µM)
Neisseria subflava 2, Replicate 1, read-out: Minimum inhibitory concentration
  MIC: 0.25 µg/mL (≈ 0.595 µM)
Neisseria subflava 2, Replicate 2, read-out: Minimum inhibitory concentration
  MIC: 0.25 µg/mL (≈ 0.595 µM)
Neisseria subflava 2, Replicate 3, read-out: Minimum inhibitory concentration
  MIC: 0.25 µg/mL (≈ 0.595 µM)
Neisseria subflava 3, Consensus, read-out: Minimum inhibitory concentration
  MIC: 0.25 µg/mL (≈ 0.595 µM)
Neisseria subflava 3, Replicate 1, read-out: Minimum inhibitory concentration
  MIC: 0.25 µg/mL (≈ 0.595 µM)
Neisseria subflava 3, Replicate 2, read-out: Minimum inhibitory concentration
  MIC: 0.25 µg/mL (≈ 0.595 µM)
Neisseria subflava 4, Consensus, read-out: Minimum inhibitory concentration
  MIC: 0.064 µg/mL (≈ 0.152 µM)
Neisseria subflava 4, Replicate 1, read-out: Minimum inhibitory concentration
  MIC: 0.064 µg/mL (≈ 0.152 µM)
Neisseria subflava 4, Replicate 2, read-out: Minimum inhibitory concentration
  MIC: 0.064 µg/mL (≈ 0.152 µM)
Neisseria subflava 4, Replicate 3, read-out: Minimum inhibitory concentration
  MIC: 0.064 µg/mL (≈ 0.152 µM)
Neisseria subflava 5, Consensus, read-out: Minimum inhibitory concentration
  MIC: 0.5 µg/mL (≈ 1.19 µM)
Neisseria subflava 5, Replicate 1, read-out: Minimum inhibitory concentration
  MIC: 0.5 µg/mL (≈ 1.19 µM)
Neisseria subflava 5, Replicate 2, read-out: Minimum inhibitory concentration
  MIC: 0.5 µg/mL (≈ 1.19 µM)
Neisseria subflava 5, Replicate 3, read-out: Minimum inhibitory concentration
  MIC: 0.5 µg/mL (≈ 1.19 µM)
po, Neisseria oralis 1, Consensus, read-out: Minimum inhibitory concentration
  MIC: 0.25 µg/mL (≈ 0.595 µM)
po, Neisseria oralis 1, Replicate 1, read-out: Minimum inhibitory concentration
  MIC: 0.25 µg/mL (≈ 0.595 µM)
po, Neisseria oralis 1, Replicate 2, read-out: Minimum inhibitory concentration
  MIC: 0.25 µg/mL (≈ 0.595 µM)
po, Neisseria oralis 1, Replicate 3, read-out: Minimum inhibitory concentration
  MIC: 0.25 µg/mL (≈ 0.595 µM)
read-out: Minimum inhibitory concentration, Neisseria cinerea 4, Consensus
  MIC: 0.125 µg/mL (≈ 0.297 µM)
read-out: Minimum inhibitory concentration, Neisseria cinerea 4, Replicate 1
  MIC: 0.125 µg/mL (≈ 0.297 µM)
read-out: Minimum inhibitory concentration, Neisseria cinerea 4, Replicate 2
  MIC: 0.125 µg/mL (≈ 0.297 µM)
read-out: Minimum inhibitory concentration, Neisseria cinerea 4, Replicate 3
  MIC: 0.125 µg/mL (≈ 0.297 µM)
read-out: Minimum inhibitory concentration, Neisseria cinerea 5, Consensus
  MIC: 0.125 µg/mL (≈ 0.297 µM)
read-out: Minimum inhibitory concentration, Neisseria cinerea 5, Replicate 1
  MIC: 0.125 µg/mL (≈ 0.297 µM)
read-out: Minimum inhibitory concentration, Neisseria cinerea 5, Replicate 2
  MIC: 0.125 µg/mL (≈ 0.297 µM)
read-out: Minimum inhibitory concentration, Neisseria cinerea 5, Replicate 3
  MIC: 0.125 µg/mL (≈ 0.297 µM)
read-out: Minimum inhibitory concentration, Neisseria cinerea 8, Consensus
  MIC: 0.125 µg/mL (≈ 0.297 µM)
read-out: Minimum inhibitory concentration, Neisseria cinerea 8, Replicate 2
  MIC: 0.125 µg/mL (≈ 0.297 µM)
read-out: Minimum inhibitory concentration, Neisseria cinerea 8, Replicate 3
  MIC: 0.125 µg/mL (≈ 0.297 µM)
read-out: Minimum inhibitory concentration, Neisseria elongata 1, Consensus
  MIC: 0.125 µg/mL (≈ 0.297 µM)
read-out: Minimum inhibitory concentration, Neisseria elongata 1, Replicate 1
  MIC: 0.125 µg/mL (≈ 0.297 µM)
read-out: Minimum inhibitory concentration, Neisseria elongata 1, Replicate 2
  MIC: 0.125 µg/mL (≈ 0.297 µM)
read-out: Minimum inhibitory concentration, Neisseria elongata 1, Replicate 3
  MIC: 0.125 µg/mL (≈ 0.297 µM)
read-out: Minimum inhibitory concentration, Neisseria flava 1, Consensus
  MIC: 0.125 µg/mL (≈ 0.297 µM)
read-out: Minimum inhibitory concentration, Neisseria flava 1, Replicate 1
  MIC: 0.125 µg/mL (≈ 0.297 µM)
read-out: Minimum inhibitory concentration, Neisseria flava 1, Replicate 3
  MIC: 0.125 µg/mL (≈ 0.297 µM)
read-out: Minimum inhibitory concentration, Neisseria flavescens 2, Consensus
  MIC: 0.125 µg/mL (≈ 0.297 µM)
read-out: Minimum inhibitory concentration, Neisseria flavescens 2, Replicate 1
  MIC: 0.125 µg/mL (≈ 0.297 µM)
read-out: Minimum inhibitory concentration, Neisseria flavescens 2, Replicate 3
  MIC: 0.125 µg/mL (≈ 0.297 µM)
read-out: Minimum inhibitory concentration, Neisseria flavescens 8, Consensus
  MIC: 0.125 µg/mL (≈ 0.297 µM)
read-out: Minimum inhibitory concentration, Neisseria flavescens 8, Replicate 2
  MIC: 0.125 µg/mL (≈ 0.297 µM)
read-out: Minimum inhibitory concentration, Neisseria flavescens 8, Replicate 3
  MIC: 0.125 µg/mL (≈ 0.297 µM)
read-out: Minimum inhibitory concentration, Neisseria flavescens 10, Consensus
  MIC: 0.125 µg/mL (≈ 0.297 µM)
read-out: Minimum inhibitory concentration, Neisseria flavescens 10, Replicate 1
  MIC: 0.125 µg/mL (≈ 0.297 µM)
read-out: Minimum inhibitory concentration, Neisseria flavescens 10, Replicate 3
  MIC: 0.125 µg/mL (≈ 0.297 µM)
read-out: Minimum inhibitory concentration, Neisseria flavescens 12, Replicate 3
  MIC: 0.125 µg/mL (≈ 0.297 µM)
read-out: Minimum inhibitory concentration, Neisseria mucosa 2, Consensus
  MIC: 0.125 µg/mL (≈ 0.297 µM)
read-out: Minimum inhibitory concentration, Neisseria mucosa 2, Replicate 2
  MIC: 0.125 µg/mL (≈ 0.297 µM)
read-out: Minimum inhibitory concentration, Neisseria mucosa 2, Replicate 3
  MIC: 0.125 µg/mL (≈ 0.297 µM)
read-out: Minimum inhibitory concentration, Neisseria perflava 5, Consensus
  MIC: 0.125 µg/mL (≈ 0.297 µM)
read-out: Minimum inhibitory concentration, Neisseria perflava 5, Replicate 1
  MIC: 0.125 µg/mL (≈ 0.297 µM)
read-out: Minimum inhibitory concentration, Neisseria perflava 5, Replicate 2
  MIC: 0.125 µg/mL (≈ 0.297 µM)
read-out: Minimum inhibitory concentration, Neisseria perflava 5, Replicate 3
  MIC: 0.125 µg/mL (≈ 0.297 µM)
read-out: Minimum inhibitory concentration, Neisseria perflava 18, Consensus
  MIC: 0.125 µg/mL (≈ 0.297 µM)
read-out: Minimum inhibitory concentration, Neisseria perflava 18, Replicate 1
  MIC: 0.125 µg/mL (≈ 0.297 µM)
read-out: Minimum inhibitory concentration, Neisseria perflava 18, Replicate 3
  MIC: 0.125 µg/mL (≈ 0.297 µM)
read-out: Minimum inhibitory concentration, Neisseria perflava 24, Consensus
  MIC: 0.125 µg/mL (≈ 0.297 µM)
read-out: Minimum inhibitory concentration, Neisseria perflava 24, Replicate 1
  MIC: 0.125 µg/mL (≈ 0.297 µM)
read-out: Minimum inhibitory concentration, Neisseria perflava 24, Replicate 2
  MIC: 0.125 µg/mL (≈ 0.297 µM)
read-out: Minimum inhibitory concentration, Neisseria perflava 24, Replicate 3
  MIC: 0.125 µg/mL (≈ 0.297 µM)
read-out: Minimum inhibitory concentration, Neisseria polysaccharea 1, Consensus
  MIC: 0.125 µg/mL (≈ 0.297 µM)
read-out: Minimum inhibitory concentration, Neisseria polysaccharea 1, Replicate 1
  MIC: 0.125 µg/mL (≈ 0.297 µM)
read-out: Minimum inhibitory concentration, Neisseria polysaccharea 1, Replicate 2
  MIC: 0.125 µg/mL (≈ 0.297 µM)
read-out: Minimum inhibitory concentration, Neisseria polysaccharea 1, Replicate 3
  MIC: 0.125 µg/mL (≈ 0.297 µM)
read-out: Minimum inhibitory concentration, Neisseria sicca 4, Consensus
  MIC: 0.125 µg/mL (≈ 0.297 µM)
read-out: Minimum inhibitory concentration, Neisseria sicca 4, Replicate 1
  MIC: 0.125 µg/mL (≈ 0.297 µM)
read-out: Minimum inhibitory concentration, Neisseria sicca 4, Replicate 2
  MIC: 0.125 µg/mL (≈ 0.297 µM)
read-out: Minimum inhibitory concentration, Neisseria subflava 3, Replicate 3
  MIC: 0.125 µg/mL (≈ 0.297 µM)
